Measured values as given in BindingDB's records for doi:10.1021/jm010246u (University of Texas At Austin, 2001).

What was measured:
[1] = target: T1, Telomerase reverse transcriptase (Homo sapiens, UniProt O14746); experiment: Apparent telomerase inhibition by G-quadruplex mechanism
[2] = target: T1, Telomerase reverse transcriptase; experiment: Apparent telomerase inhibition by primer mechanism

T1 sequence (O14746 whole entry): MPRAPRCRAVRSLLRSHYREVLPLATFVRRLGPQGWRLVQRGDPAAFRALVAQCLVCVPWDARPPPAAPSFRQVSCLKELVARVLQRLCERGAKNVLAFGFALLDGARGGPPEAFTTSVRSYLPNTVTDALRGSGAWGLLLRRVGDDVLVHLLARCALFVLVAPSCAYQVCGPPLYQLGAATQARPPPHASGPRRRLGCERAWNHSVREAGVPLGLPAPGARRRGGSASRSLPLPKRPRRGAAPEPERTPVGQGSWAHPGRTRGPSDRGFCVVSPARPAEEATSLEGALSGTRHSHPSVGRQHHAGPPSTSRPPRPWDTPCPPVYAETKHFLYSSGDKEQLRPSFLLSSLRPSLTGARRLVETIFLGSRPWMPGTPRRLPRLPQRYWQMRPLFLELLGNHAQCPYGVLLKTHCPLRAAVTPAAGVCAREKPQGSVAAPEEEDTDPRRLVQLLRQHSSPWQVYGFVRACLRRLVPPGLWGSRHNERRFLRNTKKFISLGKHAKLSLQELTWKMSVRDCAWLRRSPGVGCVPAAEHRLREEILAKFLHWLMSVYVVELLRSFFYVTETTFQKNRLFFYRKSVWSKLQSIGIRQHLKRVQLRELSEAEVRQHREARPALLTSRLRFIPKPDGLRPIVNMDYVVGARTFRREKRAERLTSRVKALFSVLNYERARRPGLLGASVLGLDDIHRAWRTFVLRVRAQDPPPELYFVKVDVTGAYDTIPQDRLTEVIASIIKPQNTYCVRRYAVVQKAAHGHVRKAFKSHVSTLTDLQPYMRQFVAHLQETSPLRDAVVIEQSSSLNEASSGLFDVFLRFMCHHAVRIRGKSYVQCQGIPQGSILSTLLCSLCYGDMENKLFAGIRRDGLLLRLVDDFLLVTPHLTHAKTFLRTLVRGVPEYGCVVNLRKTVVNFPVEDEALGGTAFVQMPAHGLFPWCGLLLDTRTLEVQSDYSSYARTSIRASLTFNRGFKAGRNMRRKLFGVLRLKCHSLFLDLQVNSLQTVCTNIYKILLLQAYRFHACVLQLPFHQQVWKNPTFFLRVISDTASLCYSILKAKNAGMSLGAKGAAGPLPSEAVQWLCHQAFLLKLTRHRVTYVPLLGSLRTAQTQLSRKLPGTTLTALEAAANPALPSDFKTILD

Compound	IC50 [1] [µM]	IC50 [2] [µM]
C[n+]1ccc(-c2c3nc(c(-c4cccc([N+](=O)[O-])c4)c4nc(c(-c5cc[n+](C)cc5)c5ccc([nH]5)c(-c5cccc([N+](=O)[O-])c5)c5ccc2[nH]5)C=C4)C=C3)cc1	25	
C[n+]1ccc(-c2c3nc(c(-c4cc[n+](C)cc4)c4ccc([nH]4)c(-c4cccc([N+](=O)[O-])c4)c4ccc([nH]4)c(-c4cc[n+](C)cc4)c4nc2C=C4)C=C3)cc1	12	
C[n+]1cc(-c2ccco2)cc(-c2c3nc(c(-c4cc(-c5ccco5)c[n+](C)c4)c4ccc([nH]4)c(-c4cc(-c5ccco5)c[n+](C)c4)c4ccc([nH]4)c(-c4cc(-c5ccco5)c[n+](C)c4)c4nc2C=C4)C=C3)c1 [5,10,15,20-tetra[5-(2-furfuryl)-N-methyl-3-pyridyl]porphyrin chloride]		8
C[n+]1ccc(-c2c3nc(c(-c4cc[n+](C)cc4)c4ccc([nH]4)c(-c4cc[n+](C)cc4)c4nc(c(-c5cc[n+](C)cc5)c5ccc2[nH]5)C=C4)C=C3)cc1	8	
CC[n+]1ccc(-c2c3nc(c(-c4cc[n+](CC)cc4)c4ccc([nH]4)c(-c4cc[n+](CC)cc4)c4ccc([nH]4)c(-c4cc[n+](CC)cc4)c4nc2C=C4)C=C3)cc1	25	
